Experimental data: PubChem BioAssay (NCI)
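Following 48 hours of exposure in 96-well plates, responses at five concentrations were used to interpolate endpoints linearly. TGI is the concentration that stops growth completely.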

Key:
Assay in all cases: NCI tumour cell line growth inhibition, 48 h
TK-10 renal = system: TK-10 renal
HCT-15 colon = system: HCT-15 colon
SK-MEL-2 melanoma = system: SK-MEL-2 melanoma
M14 melanoma = system: M14 melanoma
MDA-N = system: MDA-N
HOP-62 NSCLC = system: HOP-62 NSCLC
SK-OV-3 ovarian = system: SK-OV-3 ovarian
SF-295 CNS = system: SF-295 CNS
LOX IMVI melanoma = system: LOX IMVI melanoma
SNB-19 CNS = system: SNB-19 CNS
CAKI-1 renal = system: CAKI-1 renal
MCF7 breast = system: MCF7 breast
SF-268 CNS = system: SF-268 CNS
HCT-116 colon = system: HCT-116 colon
PC-3 prostate = system: PC-3 prostate
NCI-H460 lung = system: NCI-H460 lung
UACC-62 melanoma = system: UACC-62 melanoma
DU-145 prostate = system: DU-145 prostate
NCI-H23 lung = system: NCI-H23 lung
EKVX NSCLC = system: EKVX NSCLC
IGROV1 ovarian = system: IGROV1 ovarian
SW-620 colon = system: SW-620 colon
COLO 205 colon = system: COLO 205 colon
CCRF-CEM leukemia = system: CCRF-CEM leukemia
UACC-257 melanoma = system: UACC-257 melanoma
SN12C renal = system: SN12C renal
OVCAR-5 ovarian = system: OVCAR-5 ovarian
HCC-2998 colon = system: HCC-2998 colon
T-47D breast = system: T-47D breast
HOP-92 NSCLC = system: HOP-92 NSCLC
SK-MEL-5 melanoma = system: SK-MEL-5 melanoma
ACHN renal = system: ACHN renal
A498 renal = system: A498 renal
RXF 393 renal = system: RXF 393 renal
HT29 colon = system: HT29 colon
SK-MEL-28 melanoma = system: SK-MEL-28 melanoma
NCI/ADR-RES ovarian = system: NCI/ADR-RES ovarian
RPMI-8226 leukemia = system: RPMI-8226 leukemia
786-0 renal = system: 786-0 renal
UO-31 renal = system: UO-31 renal
KM12 colon = system: KM12 colon
MDA-MB-231 breast = system: MDA-MB-231 breast
MOLT-4 leukemia = system: MOLT-4 leukemia
HS 578T breast = system: HS 578T breast
U251 CNS = system: U251 CNS
NCI-H226 lung = system: NCI-H226 lung
NCI-H522 lung = system: NCI-H522 lung
SR leukemia = system: SR leukemia
MALME-3M melanoma = system: MALME-3M melanoma
OVCAR-8 ovarian = system: OVCAR-8 ovarian
OVCAR-4 ovarian = system: OVCAR-4 ovarian
BT-549 breast = system: BT-549 breast
A549 NSCLC = system: A549 NSCLC
K-562 leukemia = system: K-562 leukemia
SNB-75 CNS = system: SNB-75 CNS
OVCAR-3 ovarian = system: OVCAR-3 ovarian
MDA-MB-435 = system: MDA-MB-435
SF-539 CNS = system: SF-539 CNS

Measured: TGI

Cc1cccc2nc3cccc(C(=O)NCCC[N+](C)(CCCNC(=O)c4cccc5nc6cccc(C)c6nc45)Cc4ccc([N+](=O)[O-])n4C)c3nc12
> 26.9 µM: CCRF-CEM leukemia
26.2 µM: MOLT-4 leukemia
not listed: SF-539 CNS
> 100 µM: all other assays above

Nn1c(SCC(=O)O)nc2ccccc2c1=O
not listed: HOP-62 NSCLC | SK-OV-3 ovarian
> 100 µM: all other assays above
